According to ChEMBL document CHEMBL1128613, “A water soluble benzazepine cholecystokinin-B receptor antagonist” (Bioorg Med Chem Lett, 1995):

What follows are molecules tested against T1, Cholecystokinin receptor type A (Cavia porcellus, UniProt Q63931) (assay: Binding activity towards cholecystokinin-A (CCK-A) receptor in guinea pig pancreas).
T1 sequence (Q63931 whole entry): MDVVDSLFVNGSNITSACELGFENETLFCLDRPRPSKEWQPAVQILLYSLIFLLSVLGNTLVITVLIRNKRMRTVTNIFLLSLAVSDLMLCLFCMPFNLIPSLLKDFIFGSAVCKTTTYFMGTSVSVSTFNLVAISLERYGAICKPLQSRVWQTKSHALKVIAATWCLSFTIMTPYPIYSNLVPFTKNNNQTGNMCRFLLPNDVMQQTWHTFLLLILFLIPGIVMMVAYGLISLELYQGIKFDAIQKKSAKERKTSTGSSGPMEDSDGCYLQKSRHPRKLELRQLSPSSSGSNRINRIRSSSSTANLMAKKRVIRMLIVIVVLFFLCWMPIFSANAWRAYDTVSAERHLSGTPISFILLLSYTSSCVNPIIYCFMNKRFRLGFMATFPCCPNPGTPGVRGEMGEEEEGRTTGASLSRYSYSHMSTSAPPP

IC50 | Compound
310 nM | COC(=O)c1cccc(NC(=O)N[C@@H]2C[C@H](c3ccccc3)c3ccc(C)cc3N(CC(=O)NC(C)(C)C)C2=O)c1
220 nM | Cc1ccc2c(c1)N(CC(=O)NC(C)(C)C)C(=O)[C@H](NC(=O)Nc1cccc(-c3nnn[nH]3)c1)C[C@@H]2CC1CCCCC1
1100 nM | CCS(=O)(=O)NC(=O)c1cccc(NC(=O)N[C@@H]2C[C@H](c3ccccc3)c3ccc(C)cc3N(CC(=O)NC(C)(C)C)C2=O)c1
1400 nM | Cc1ccc2c(c1)N(CC(=O)NC(C)(C)C)C(=O)[C@H](NC(=O)Nc1cccc(C(=O)O)c1)C[C@@H]2C1CCCCC1 (stereo in doubt; 2)
600 nM | Cc1ccc([C@H]2C[C@@H](NC(=O)Nc3cccc(-c4nn[nH]n4)c3)C(=O)N(CC(=O)NC(C)(C)C)c3cc(C)ccc32)cc1
620 nM | Cc1ccc2c(c1)N(CC(=O)NC(C)(C)C)C(=O)[C@H](NC(=O)Nc1cccc(-c3nnn[nH]3)c1)C[C@@H]2c1ccccc1
320 nM | Cc1ccc2c(c1)N(CC(=O)NC(C)(C)C)C(=O)[C@H](NC(=O)Nc1cccc(C(=O)NS(=O)(=O)C(F)(F)F)c1)C[C@@H]2c1ccccc1
1300 nM | Cc1ccc2c(c1)N(CC(=O)NC(C)(C)C)C(=O)[C@H](NC(=O)Nc1cccc(C(=O)NS(=O)(=O)c3ccccc3C)c1)C[C@@H]2c1ccccc1
730 nM | Cc1ccc2c(c1)N(CC(=O)NC(C)(C)C)C(=O)[C@H](NC(=O)Nc1cccc(C(=O)NS(=O)(=O)Cc3ccccc3)c1)C[C@@H]2c1ccccc1
490 nM | Cc1ccc2c(c1)N(CC(=O)NC(C)(C)C)C(=O)[C@H](NC(=O)Nc1cccc(-c3nnn[nH]3)c1)C[C@@H]2C1CCCCC1
4200 nM | Cc1ccc2c(c1)N(CC(=O)NC(C)(C)C)C(=O)[C@H](NC(=O)Nc1cccc(C(=O)O)c1)C[C@@H]2c1ccccc1
1000 nM | Cc1ccc2c(c1)N(CC(=O)NC(C)(C)C)C(=O)[C@H](NC(=O)Nc1cccc(C(=O)Nc3nnn[nH]3)c1)C[C@@H]2c1ccccc1
250 nM | Cc1ccc2c(c1)N(CC(=O)NC(C)(C)C)C(=O)[C@H](NC(=O)Nc1cccc(-c3nnn[nH]3)c1)C[C@@H]2C(C)C
520 nM | Cc1ccc2c(c1)N(CC(=O)NC(C)(C)C)C(=O)[C@H](NC(=O)Nc1cccc(C(=O)NS(C)(=O)=O)c1)C[C@@H]2C1CCCCC1
370 nM | COC(=O)c1cccc(NC(=O)N[C@@H]2C[C@H](C3CCCCC3)c3ccc(C)cc3N(CC(=O)NC(C)(C)C)C2=O)c1
1300 nM | Cc1ccc2c(c1)N(CC(=O)NC(C)(C)C)C(=O)[C@H](NC(=O)Nc1cccc(C(=O)NS(=O)(=O)c3ccccc3)c1)C[C@@H]2c1ccccc1
970 nM | Cc1ccc2c(c1)N(CC(=O)NC(C)(C)C)C(=O)[C@H](NC(=O)Nc1cccc(C(=O)NS(C)(=O)=O)c1)C[C@@H]2c1ccccc1
2300 nM | Cc1ccc2c(c1)N(CC(=O)NC(C)(C)C)C(=O)[C@H](NC(=O)Nc1cccc(C(=O)O)c1)C[C@@H]2C1CCCCC1 (stereo in doubt; 5k)
34 nM | Cc1ccc2c(c1)N(CC(=O)NC(C)(C)C)C(=O)[C@H](NC(=O)Nc1cccc(-c3nnn[nH]3)c1)C[C@@H]2Cc1ccccc1
